# Measurements as given in ChEMBL document CHEMBL3044558, “Structure-activity relationship development of dihaloaryl triazole compounds as insecticides and acaricides. 1. Phenyl thiophen-2-yl triazoles” (2007).
# Activity calls are given as the source filed them. No cut-off for these calls is given here.
# Columns and labels:
# Bemisia tabaci [1] = test: Insecticidal activity against Bemisia tabaci (sweet potato whitefly) second-instar larvae infested five weeks old cotton plants followed by compound 250 ppm compound spraying after insect oviposit assessed as insect mortality measured 13 days post compound treatment under green house conditions; assay type: functional
# Trichoplusia ni [2] = test: Insecticidal activity against Trichoplusia ni (cabbage looper) second-instar larvae infested on 400 ppm compound pre-treated cabbage leaf disk assessed as insect mortality measured 5 days post compound treatment under green house conditions; assay type: functional; conditions: at 400 ppm
# Spodoptera exigua = test: Insecticidal activity against Spodoptera exigua second-instar larvae feeded on 400 ppm compound treated lepidopteran diet assessed as insect mortality measured 5 days post compound treatment under green house conditions; assay type: functional; conditions: at 400 ppm
# Heliothis virescens [3] = test: Insecticidal activity against Heliothis virescens (tobacco budworm) second-instar larvae infested on 400 ppm compound pre-treated cotton cotyledon disk assessed as insect mortality measured 5 days post compound treatment under green house conditions; assay type: functional
# Tetranychus urticae [4] = system: Tetranychus urticae
# Aphis gossypii [5] = system: Aphis gossypii
# Tetranychus urticae [6] = test: Insecticidal activity against female Tetranychus urticae (two-spotted spider mite) infested cotton leaf disks followed by 2.5 ppm compound spraying after oviposit assessed as insect mortality measured after 6 days post compound application under green house conditions; assay type: functional; conditions: foliar, 144 h
# Aphis gossypii [7] = test: Insecticidal activity against Aphis gossypii (cotton aphid) infested one week old Crookneck squash plants assessed as insect mortality at 50 ppm measured after 3 days post compound application under green house conditions; assay type: functional; conditions: 72 h
# Bemisia tabaci [8] = system: Bemisia tabaci
# Trichoplusia ni [9] = system: Trichoplusia ni
# Heliothis virescens [10] = system: Heliothis virescens
SMILES,mortality (Bemisia tabaci [1]),mortality (Trichoplusia ni [2]),mortality (Spodoptera exigua),mortality (Heliothis virescens [3]),mortality (Tetranychus urticae [4]),mortality (Aphis gossypii [5]),mortality at 2.5 ppm (Tetranychus urticae [6]),mortality at 50 ppm (Aphis gossypii [7]),mortality (Bemisia tabaci [8]),mortality (Trichoplusia ni [9]),mortality (Heliothis virescens [10])
Cn1nc(-c2c(F)cccc2Cl)nc1-c1sc(-c2ccc(OC(F)(F)F)cc2)c(Cl)c1Cl,70%,90%,70%,60%,inactive,inactive,–,–,–,–,–
Cn1nc(-c2c(F)cccc2Cl)nc1-c1sc(-c2ccc(C(F)(F)F)cc2)c(Br)c1Cl,–,–,90%,90%,–,–,90%,< 50%,inactive,inactive,–
Cc1c(-c2nc(-c3c(F)cccc3Cl)nn2C)sc(-c2ccc(OC(F)(F)F)cc2)c1Br,–,90%,90%,–,–,inactive,90%,–,inactive,–,inactive
Cc1c(-c2nc(-c3c(F)cccc3Cl)nn2C)sc(Br)c1-c1ccc(OC(F)(F)C(F)Br)cc1 (configuration not stated),<50%,–,80%,90%,–,–,90%,< 50%,–,inactive,–
CCOc1ccc(-c2ccc(-c3nc(-c4c(F)cccc4Cl)nn3C)s2)cc1,<50%,90%,80%,–,inactive,inactive,–,–,–,–,inactive
Cn1nc(-c2c(F)cccc2Cl)nc1-c1sc(-c2ccc(-c3ccccc3)cc2)c(Cl)c1Cl,<50%,–,50%,90%,–,–,80%,90%,–,inactive,–
Cc1sc(-c2nc(-c3c(F)cccc3Cl)nn2C)c(C)c1-c1ccc(C(C)C)cc1,–,–,80%,80%,–,–,90%,< 50%,inactive,inactive,–
COc1ccc(-c2csc(-c3nc(-c4c(F)cccc4F)nn3C)c2)cc1,60%,80%,50%,–,inactive,inactive,–,–,–,–,inactive
Cc1cc(C2=CCC(OC(F)(F)C(F)Cl)CC2)sc1-c1nc(-c2c(F)cccc2Cl)nn1C (configuration not stated),50%,–,70%,90%,–,–,90%,90%,–,inactive,–
Cc1c(-c2ccc(C(F)(F)F)cc2)csc1-c1nc(-c2c(F)cccc2Cl)nn1C,<50%,90%,60%,–,–,–,60%,60%,–,–,inactive
Cc1c(-c2nc(-c3c(F)cccc3Cl)nn2C)sc(Cl)c1-c1ccc(OC(F)(F)F)cc1,<50%,–,90%,–,–,inactive,90%,–,–,inactive,inactive
CCOc1ccc(-c2cc(Cl)c(-c3nc(-c4c(F)cccc4Cl)nn3C)s2)cc1,–,90%,80%,60%,–,inactive,90%,–,inactive,–,–
Cn1nc(-c2c(F)cccc2Cl)nc1-c1sc(-c2ccc(Br)cc2)c(Cl)c1Cl,50%,–,70%,90%,–,inactive,90%,–,–,inactive,–
Cn1nc(-c2c(F)cccc2Cl)nc1-c1sc(-c2ccc(C(C)(C)C)cc2)c(Cl)c1Cl,<50%,–,50%,<50%,–,–,60%,80%,–,inactive,–
Cc1cc(-c2ccncc2)sc1-c1nc(-c2c(F)cccc2Cl)nn1C,–,90%,70%,<50%,inactive,inactive,–,–,inactive,–,–
COCCOc1cccc(-c2cc(C)c(-c3nc(-c4c(F)cccc4Cl)nn3C)s2)c1,–,70%,80%,–,–,–,< 50%,< 50%,inactive,–,inactive
CCOc1ccc(-c2cc(C)c(-c3nc(-c4c(F)cccc4Cl)nn3C)s2)cc1,<50%,–,80%,60%,–,inactive,90%,–,–,inactive,–
Cc1cc(-c2cccc(OC(F)(F)F)c2)sc1-c1nc(-c2c(F)cccc2Cl)nn1C,<50%,90%,80%,90%,inactive,inactive,–,–,–,–,–

SMILES,mortality (Bemisia tabaci [1]),mortality (Trichoplusia ni [2]),mortality (Spodoptera exigua),mortality (Heliothis virescens [3]),mortality (Tetranychus urticae [4]),mortality (Aphis gossypii [5]),mortality at 2.5 ppm (Tetranychus urticae [6]),mortality at 50 ppm (Aphis gossypii [7]),mortality (Bemisia tabaci [8]),mortality (Trichoplusia ni [9]),mortality (Heliothis virescens [10])
Cc1cc(-c2ccc3c(c2)OCCO3)sc1-c1nc(-c2c(F)cccc2Cl)nn1C,–,80%,80%,90%,–,inactive,90%,–,inactive,–,–
Cc1c(-c2ccc(OC(F)(F)C(F)Br)cc2)csc1-c1nc(-c2c(F)cccc2Cl)nn1C (configuration not stated),90%,–,90%,90%,–,–,90%,80%,–,inactive,–
Cc1ccc(-c2sc(-c3nc(-c4c(F)cccc4Cl)nn3C)c(Cl)c2Cl)cc1,70%,–,70%,50%,–,inactive,90%,–,–,inactive,–
Cc1cc(-c2ccc3c(c2)COC3)sc1-c1nc(-c2c(F)cccc2Cl)nn1C,–,70%,60%,90%,–,inactive,80%,–,inactive,–,–
Cc1c(-c2nc(-c3c(F)cccc3Cl)nn2C)sc(Br)c1-c1ccc(OC(F)(F)F)cc1,–,–,90%,–,–,inactive,50%,–,inactive,inactive,inactive
CCOc1cccc(-c2cc(C)c(-c3nc(-c4c(F)cccc4Cl)nn3C)s2)c1,–,<50%,80%,<50%,–,inactive,70%,–,inactive,–,–
Cc1c(-c2ccc(C(C)C)cc2)csc1-c1nc(-c2c(F)cccc2Cl)nn1C,–,50%,80%,90%,–,inactive,90%,–,inactive,–,–
Cc1cc(-c2cc(Br)cc(Br)c2)sc1-c1nc(-c2c(F)cccc2Cl)nn1C,–,–,60%,<50%,inactive,inactive,–,–,inactive,inactive,–
Cc1c(-c2ccc(O)cc2)csc1-c1nc(-c2c(F)cccc2Cl)nn1C,–,–,<50%,<50%,inactive,inactive,–,–,inactive,inactive,–
Cc1ccc(-c2cc(Cl)c(-c3nc(-c4c(F)cccc4Cl)nn3C)s2)cc1,–,–,<50%,60%,–,inactive,90%,–,inactive,inactive,–
Cc1cc(Oc2ncc(C(F)(F)F)cc2Cl)sc1-c1nc(-c2c(F)cccc2Cl)nn1C,90%,–,70%,90%,–,–,90%,90%,–,inactive,–
Cc1cc(C2=CCC(OC(=O)C(F)(F)Br)CC2)sc1-c1nc(-c2c(F)cccc2Cl)nn1C (configuration not stated),–,–,<50%,90%,–,–,70%,< 50%,–,inactive,–
Cc1cc(C2(O)CCC(=O)CC2)sc1-c1nc(-c2c(F)cccc2Cl)nn1C,–,<50%,<50%,<50%,inactive,inactive,–,–,inactive,–,–
Cc1sc(-c2nc(-c3c(F)cccc3Cl)nn2C)c(C)c1-c1ccc(C(F)(F)F)cc1,60%,–,90%,60%,–,–,90%,< 50%,–,inactive,–
Cc1c(-c2ccc(OC(F)(F)C(F)Br)cc2)sc(-c2nc(-c3c(F)cccc3Cl)nn2C)c1C (configuration not stated),80%,–,70%,90%,–,–,90%,< 50%,–,inactive,–
Cn1nc(-c2c(F)cccc2Cl)nc1-c1cc(-c2ccc(Cl)cc2)c(Cl)s1,–,–,50%,–,inactive,inactive,–,–,–,–,inactive
CCOc1ccc(-c2c(C)sc(-c3nc(-c4c(F)cccc4Cl)nn3C)c2C)cc1,<50%,–,80%,70%,–,–,< 50%,< 50%,–,inactive,–
